Test results reported in publication PMC10712727, “Safety, Tolerability, and Pharmacokinetics of Senaparib, a Novel PARP1/2 Inhibitor, in Chinese Patients With Advanced Solid Tumors: A Phase I Trial” (The Oncologist, 2023).

System: BRCA^mut+ tumors
Experiment: Tumor response per RECIST v1.1 (ORR, DCR, DOR, PFS), BRCA^mut+ subgroup
Type: in vivo, human
Details: for Patients with reduced tumor size: BRCA^mut+ subgroup; for PFS, Median (95% CI): Kaplan-Meier
Excerpt: The dose-expansion period included 3 populations: dose groups in which at least one patient achieved complete response (CR) or partial response (PR) per RECIST v1.1[16] and 1 dose group higher (evaluated for safety), as well as the dose group at the maximum tolerated dose (MTD)/recommended phase II dose (RP2D). Each of these groups included those patients in the respective dose-escalation group plus a planned additional 10 patients (approximately 20 patients in the MTD/RP2D group) with BRCA^mut+ solid tumors (ovarian, breast, or prostate cancer were preferred, and ovarian cancer could be BRCA wild type). Patients received senaparib monotherapy orally QD or BID (50-mg dose only) over each 3-week cycle until disease progression or unacceptable toxicity.
Safety was assessed by recording the incidence of dose-limiting toxicities (DLTs), and the incidence, nature, severity (graded per National Cancer Institute Common Terminology Criteria for Adverse Events version 4.03 [NCI CTCAE v4.03][18]), and relatedness of treatment-emergent adverse events (TEAEs). DLTs were predefined toxicities (Supplementary Table S2) recorded over the 7 days following the single-dose administration of senaparib and during the first treatment cycle (day 1-day 21) for each dose group in the dose-escalation period only. The MTD was defined as the maximum dose at which ≤1/6 patients experienced a DLT. Senaparib PK parameters were derived from blood samples collected from patients after the single administration, and at regular intervals during the first cycle of the dose-escalation and dose-expansion periods. Plasma concentrations of senaparib were determined using high-performance liquid chromatography-tandem mass spectrometry. Tumor response was assessed every 6 weeks per RECIST v1.1,[16] recording objective response rate (ORR), disease control rate (DCR), duration of response (DOR), and progression-free survival (PFS) by dose level for all patients and for those harboring BRCA^mut+ tumors.
There was no formal sample size calculation based on statistical hypothesis testing for this study; the planned enrolment was approximately 30-60 patients across the dose-escalation and dose-expansion cohorts. The actual number in the dose-escalation cohort was adjusted based on the number of dose cohorts required for the modified Fibonacci dose-escalation design and the determined MTD. Definitions for all analysis populations (safety, DLT, PK, and efficacy [intent-to-treat, ITT]) are provided in Supplementary Table S2. No statistical tests were performed; patient demographic and baseline characteristics, safety/tolerability, PK parameters, and efficacy were evaluated descriptively. ORR and DCR and their 95% CIs were calculated for each group using the exact probability method. Kaplan-Meier statistics were used to estimate DOR and PFS, and their 95% CIs for each dose group separately. Dose linearity was explored based on the single-dose data of area under the time-concentration curve (AUC) and maximum plasma concentration (Cmax) using the power model (Y = α × dose β) for the dose range 2-80 mg on a log-transformed scale. The following criterion was used to determine whether dose proportionality was met: if the (2-sided) 90% CI for β was wholly contained within the interval (1 + log(0.5)/log(r), 1 + log(2)/log(r)), then dose proportionality was supported. Here, r was defined as the ratio of the highest to lowest dose. All data analyses were carried out using SAS EG7.1 or higher or (for PK parameters) WinNonlin 7.0 or higher.

[1] = BRCA^mut+, 26 evaluable for tumor response
[2] = BRCA^mut+, 5 mg QD, PFS evaluable n 2
[3] = BRCA^mut+, 10 mg QD, PFS evaluable n 1
[4] = BRCA^mut+, 10 mg QD, evaluable n 1
[5] = BRCA^mut+, 20 mg QD, PFS evaluable n 3
[6] = BRCA^mut+, 20 mg QD, evaluable n 2
[7] = BRCA^mut+, 60 mg QD, PFS evaluable n 4
[8] = BRCA^mut+, 60 mg QD, evaluable n 4
[9] = BRCA^mut+, 80 mg QD, DOR evaluable n 3
[10] = BRCA^mut+, 80 mg QD, PFS evaluable n 6
[11] = BRCA^mut+, 80 mg QD, evaluable n 6
[12] = BRCA^mut+, 100 mg QD, DOR evaluable n 2
[13] = BRCA^mut+, 100 mg QD, PFS evaluable n 13
[14] = BRCA^mut+, 100 mg QD, evaluable n 11
[15] = BRCA^mut+, 120 mg QD, PFS evaluable n 2
[16] = BRCA^mut+, 120 mg QD, evaluable n 2
[17] = BRCA^mut+, Total, DOR evaluable n 7
[18] = BRCA^mut+, Total, PFS evaluable n 32
[19] = BRCA^mut+, Total, evaluable n 26

O=C(c1cc(Cn2c(=O)[nH]c(=O)c3c(F)cccc32)ccc1F)N1CCN(c2ncccn2)CC1 [Senaparib]
Median DOR (BRCA^mut+ patients, 95% CI, 39-NR): 169 days | Median PFS (BRCA^mut+ patients, 95% CI, 79-464): 215 days | Patients with reduced tumor size (non-ovarian (3/10)): 30.0% | Patients with reduced tumor size (ovarian cancer (10/16)): 62.5% | DCR [1]: 73.1% | ORR [1]: 26.9% | DOR: Events (BRCA^mut+, 2 mg QD, DOR evaluable n 0): 0 n (%) | PFS: Events (BRCA^mut+, 2 mg QD, PFS evaluable n 0): 0 (0) n (%) | DOR: Events (BRCA^mut+, 5 mg QD, DOR evaluable n 0): 0 n (%) | PFS: Events [2]: 2 (100) n (%) | PFS, Median (95% CI) [2]: 254.5 (45-464) days | DOR: Events (BRCA^mut+, 10 mg QD, DOR evaluable n 0): 0 n (%) | PFS: Events [3]: 1 (100) n (%) | PFS, Median (95% CI) [3]: 49 (49-49) days | Complete response [4]: 0 n (%) | DCR (complete response+partial response+stable disease) [4]: 0 n (%) | ORR (complete response+partial response) [4]: 0 (0) n (%) | Partial response [4]: 0 n (%) | Stable disease (≥42 days from cycle 1 day 1) [4]: 0 n (%) | DOR: Events (BRCA^mut+, 20 mg QD, DOR evaluable n 1): 0 n (%) | PFS: Events [5]: 1 (33.3) n (%) | PFS, Median (95% CI) [5]: – (39-NR) | Complete response [6]: 0 n (%) | DCR (complete response+partial response+stable disease) [6]: 1 (50.0) n (%) | ORR (complete response+partial response) [6]: 1 (50.0) n (%) | Partial response [6]: 1 (50.0) n (%) | Stable disease (≥42 days from cycle 1 day 1) [6]: 0 n (%) | DOR: Events (BRCA^mut+, 40 mg QD, DOR evaluable n 0): 0 n (%) | DOR: Events (BRCA^mut+, 50 mg BID, DOR evaluable n 0): 0 n (%) | PFS: Events (BRCA^mut+, 50 mg BID, PFS evaluable n 1): 0 (0) n (%) | DOR: Events (BRCA^mut+, 60 mg QD, DOR evaluable n 1): 0 n (%) | PFS: Events [7]: 2 (50.0) n (%) | PFS, Median (95% CI) [7]: 255 (127-NR) days | Complete response [8]: 0 n (%) | DCR (complete response+partial response+stable disease) [8]: 4 (100) n (%) | ORR (complete response+partial response) [8]: 1 (25.0) n (%) | Partial response [8]: 1 (25.0) n (%) | Stable disease (≥42 days from cycle 1 day 1) [8]: 3 (75.0) n (%) | DOR, Median (95% CI) [9]: 120 (39-169) days | DOR: Events [9]: 3 (100) n (%) | PFS: Events [10]: 5 (83.3) n (%) | PFS, Median (95% CI) [10]: 167 (40-216) days | Complete response [11]: 0 n (%) | DCR (complete response+partial response+stable disease) [11]: 5 (83.3) n (%) | ORR (complete response+partial response) [11]: 3 (50.0) n (%) | Partial response [11]: 3 (50.0) n (%) | Stable disease (≥42 days from cycle 1 day 1) [11]: 2 (33.3) n (%) | DOR, Median (95% CI) [12]: – (169-NR) | DOR: Events [12]: 1 (50.0) n (%) | PFS: Events [13]: 5 (38.5) n (%) | PFS, Median (95% CI) [13]: 289 (42-NR) days | Complete response [14]: 0 n (%) | DCR (complete response+partial response+stable disease) [14]: 8 (72.7) n (%) | ORR (complete response+partial response) [14]: 2 (18.2) n (%) | Partial response [14]: 2 (18.2) n (%) | Stable disease (≥42 days from cycle 1 day 1) [14]: 6 (54.5) n (%) | DOR: Events (BRCA^mut+, 120 mg QD, DOR evaluable n 0): 0 n (%) | PFS: Events [15]: 1 (50.0) n (%) | PFS, Median (95% CI) [15]: – (48-NR) | Complete response [16]: 0 n (%) | DCR (complete response+partial response+stable disease) [16]: 1 (50.0) n (%) | ORR (complete response+partial response) [16]: 0 (0) n (%) | Partial response [16]: 0 n (%) | Stable disease (≥42 days from cycle 1 day 1) [16]: 1 (50.0) n (%) | DOR, Median (95% CI) [17]: 169 (39-NR) days | DOR: Events [17]: 4 (57.1) n (%) | PFS: Events [18]: 17 (53.1) n (%) | PFS, Median (95% CI) [18]: 215 (79-464) days | Complete response [19]: 0 n (%) | DCR (complete response+partial response+stable disease) [19]: 19 (73.1) n (%) | ORR (complete response+partial response) [19]: 7 (26.9) n (%) | Partial response [19]: 7 (26.9) n (%) | Stable disease (≥42 days from cycle 1 day 1) [19]: 12 (46.2) n (%)
